Reference: patent US9408910B2, “Anticancer prodrug activated by radiation or ultraviolet treatment and use thereof” (priority 2011, dated 2016)
Numbered stars: 1 amine (or outer) side, 2 acyl side, 3 side chain; on linkers, the order of the positions; unused ones are H or OH. Square brackets hold non-standard residues; d marks the D form. Peptide text beside a SMILES is read from it. * marks the point of attachment. Doxorubicin(3'-N) = COc1cccc2c1C(=O)c1c(O)c3c(c(O)c1C2=O)C[C@@](O)(C(=O)CO)C[C@@H]3O[C@H]1C[C@H](N*)[C@H](O)[C@H](C)O1; PABC = O=C(OCc1ccc(N[*:1])cc1)[*:2]

Columns and labels:
[1] = system: tumor mouse models transplanted with SCC 7 cell line; assay: Anti-tumor therapeutic effect of the anticancer prodrug with radiation (Example 3); assay type: in vivo; details: administered together with radiation (5 Gy, gamma knife); prodrug 3 mg/kg i.v. 24 hr after radiation and again after 2 days; FIG. 8
SCC 7 cells = assay: Cytotoxicity evaluation by in vitro MTT assay (Example 4); assay type: cell-based; details: no caspase-3 expression
Protocol: Cytotoxicity was evaluated by in vitro MTT assay.
In detail, SCC 7 cells were radiated at a dose of 1 Gy, 5 Gy, or 10 Gy, and then the medium was removed after 2 h, 6 h, 12 h, 24 h, or 48 h. 20 μl of MTT solution per 100 μl of medium was treated, and then reacted at 30° C. for 1 hour in the dark. Thereafter, the cells were washed with PBS three times, and the medium was removed. 100 μl of DMSO was added to dissolve MTT formazan, followed by ELASA (test wavelength: 570 nm).
That is, total 6 experiments were carried out, and the results are shown FIGS. 9a to 9f. a) Radiation of cells at a radiation dose of 1 Gy, 5 Gy, 10 Gy, 15 Gy, 20 Gy, followed by MTT assay (radiation MTT assay), b) Treatment of cells with doxorubicin at a dose of 0.1 μM, 0.5 μM, 1 μM, and 5 μM, followed by MTT assay (Doxorubicin MIT assay), c) Treatment of cells with anticancer prodrug (KGDEVD-DOX) prepared in Example 1, followed by MTT assay (KGDEVD-DOX MTT assay), d) Treatment of cells with caspase-3-treated anticancer prodrug (KGDEVD-DOX) prepared in Example 1, followed by MIT assay (Cleaved Dox by Caspase-3 MIT assay), e) Treatment of cells with doxorubicin and radiation, followed by MIT assay (Doxorubicin+RT MTT assay), f) Treatment of cells with […], followed by MTT assay (KGDEVD-DOX+RT MTT assay). […]

[2] = system: tumor mouse models transplanted with SCC 7 cell line; details: 5 Gy radiation, then 10 mg/kg i.v. every day for 3 days; FIG. 18
Protocol: That is, tumor mouse models transplanted with SCC 7 cell line were radiated using a gamma knife (5 Gy). 24 hrs after radiation, the caspase-3 sensitive anticancer prodrug was administered into the animals via intravenous injection (10 mg/kg). At this time, the same dose of the drug was administered into the animals every day for 3 days, and then tumor growth and survival rate were measured every day until the experiments were terminated after radiation. The organs were removed from each experimental group after completion of the experiment, and cytotoxicity of the drug was examined.

| SMILES | tumor size (tumor growth) [1] | cytotoxicity when caspase-3 was not expressed (SCC 7 cells) | side effects (cytotoxicity of the drug in removed organs) [2] |
| --- | --- | --- | --- |
| COc1cccc2c1C(=O)c1c(O)c3c(c(O)c1C2=O)C[C@@](O)(C(=O)CO)C[C@@H]3O[C@H]1C[C@H](N)[C@H](O)[C@H](C)O1 [doxorubicin] | tumor was reduced in size |  |  |
| COc1cccc2c1C(=O)c1c(O)c3c(c(O)c1C2=O)C[C@@](O)(C(=O)CO)C[C@@H]3O[C@H]1C[C@H](NC(=O)OCc2ccc(NC(=O)[C@H](CC(=O)O)NC(=O)[C@@H](NC(=O)[C@H](CCC(=O)O)NC(=O)[C@H](CC(=O)O)NC(=O)CNC(=O)[C@H](CCCCN)NC(C)=O)C(C)C)cc2)[C@H](O)[C@H](C)O1 [KGDEVD-DOX, Ac-Lys-Gly-Asp-Glu-Val-Asp-PABC-DOX] (Ac-KGDEVD[PABC]-{Doxorubicin(3'-N)}) |  | no cytotoxicity | reduced side effects |
